Measurements as given in patent publication US12617818B2, “Compositions and methods for modulating myosin subfragment-2 coiled coil stability and methods for using them” (UNIVERSITY OF NORTH TEXAS, priority 2020, dated 2026).

Tests used:
[1] = tested on: rabbit skeletal myosin (myosin S2 coiled coil); test: GFS with rabbit skeletal myosin tethered by S1 heads to G-actin; assay type: biochemical
Protocol: To test stability and flexibility of myosin S2 peptide two different types of conjugation was performed to tether the molecule between the immobile edge and mobile edge. First conjugation was crosslinking the muscle myosin S2 peptides to immobile edge and mobile bead. A different conjugation was benefiting from the binding property of actin to myosin S1. Rabbit skeletal myosin molecule at myosin S1 position was bound with G-actin treated immobile edge and mobile bead.
This conjugation was done by first, treating glass coverslips and silica beads with 0.04% 3-aminopropyltriethoxylsilane in acetone to add the aminosilane groups to both glass coverslips and silica beads. To cross link G-actin to the aminosilanated glass coverslips and silica beads 740 mM 1-ethyl-3-(3 dimethyaminopropyl) carbodiimide was used with help of 60 μM N-hydroxysuccinamide. To block any unreacted group, glycine quenching solution was added. Lastly, both glass coverslips and silica beads went over several washes with low salt buffer and were stored in the same low salt buffer for GFS experiments.
The point of attachment to tether myosin molecule between immobile edge of the coverslip and mobile beads, was at the acto-myosin S1 binding region. The edge of the coverslips and silica beads are coated with G-actin molecules. […]

[2] = target: T1, cardiac muscle myosin S2 mutant peptide E924K (MYH7) (Homo sapiens, UniProt P12883, E924K); test: FRET of E924K mutant cardiac myosin S2 peptide dimer with stabilizer; assay type: binding
T1 construct: cardiac muscle myosin S2 peptides region 921 to 939; host or cells: chemical synthesis
Source text: This mutation also causes mechanical instability and unstable coiled coil. Sequence of this mutation was obtained using PDB. A 19 residue peptide of this region was chemically synthesized. Generated amino acid sequence used is as follow: • E924K: NH2-[…]—COOH (SEQ ID NO:9)
Resonance energy probes (donor and acceptor) were covalently attached to synthetic myosin S2 peptides of cardiac muscle, E930del cardiac muscle, E924K cardiac muscle, smooth muscle, and skeletal muscle (Aboonasrshiraz, N., 2020).
Acceptor probe was conjugated to muscle myosin S2 peptides at N-terminus. Muscle myosin S2 peptides were dissolved in 20 mM HEPES buffer at pH 8.0. And FITC was dissolved in few drops of N, N dimethyl formamide. Lastly, FITC and muscle myosin S2 peptide was reacted together in 1 to 1 molar ratio and was let to react for 120 minutes at room temperature. The FITC conjugated S2 peptides were purified using […]. […]
In FRET assay, Fluorescein Isothiocyanate (FITC) functioned as fluorescent acceptor probe and Terbium Diethylene Triamine Pentaacetic Acid-Cytosine (Lanthanide-DTPA-Cytosine) functioned as donor probe. […] Lifetime of donor probe was measured in milliseconds.
E924K and Edel930; the myosin S2 HCM mutants, form unstable dimers. […] The calculated separation distance in presence of the stabilizer peptide was 3.65 nm. […]

TD (donor lifetime without acceptor) [2] | Compound | force required to uncoil myosin relative to absence of peptide (less) ([1]; destabilizer peptide vs control) [times] | Force required to uncoil the myosin molecule ([1]; length 100 nm, in presence of destabilizer peptide) [pN]
 | CSCC[C@H](NC(=O)[C@H](CCC(=O)O)NC(=O)[C@H](CCCNC(=N)N)NC(=O)[C@H](CCC(=O)O)NC(=O)[C@H](CC(=O)O)NC(=O)[C@H](CCC(=O)O)NC(=O)[C@H](CC(C)C)NC(=O)[C@H](CCCNC(=N)N)NC(=O)[C@H](CCC(=O)O)NC(=O)[C@H](CC(N)=O)NC(=O)[C@H](CCSC)NC(=O)[C@@H](N)CCC(=O)O)C(=O)N[C@@H](CCCCN)C(=O)N[C@@H](C)C(=O)N[C@@H](CCC(=O)O)C(=O)N[C@@H](CC(C)C)C(=O)N[C@H](C(=O)N[C@@H](C)C(=O)N[C@@H](CCCCN)C(=O)O)[C@@H](C)O [Destabilizer] | 1.6 | 3.09±0.05
1.94E−03 | C[C@H](NC(=O)[C@H](CCCCN)NC(=O)[C@H](Cc1ccccc1)NC(=O)[C@H](CCCCN)NC(=O)[C@H](CCCCN)NC(=O)[C@H](CCCCN)NC(=O)[C@H](CCCCN)NC(=O)[C@H](CCCCN)NC(=O)[C@H](CCCCN)NC(=O)[C@H](CCCCN)NC(=O)[C@@H](N)CCCCN)C(=O)N[C@@H](CCCCN)C(=O)N[C@@H](CCCCN)C(=O)N[C@@H](CCCCN)C(=O)N[C@@H](CCCCN)C(=O)N[C@@H](CCCCN)C(=O)N[C@@H](CCCCN)C(=O)O [Stabilizer] |  | 
